Active and inactive are the calls of the source. No cut-off for these calls is given here.
Legend:
HeLa [1] = experiment: Decrease of TNF-alpha-stimulated wild type NF-kappaB p65 level in human HeLa cell nucleus at 10 ug/mL by Western blot analysis; format: functional, cell-based
[2] = Inhibition of DNA binding activity of NF-kappaB p50 C144S mutant by MALDI-TOF MS analysis
[3] = test system: Transcription factor p65 (Homo sapiens), Q04206 [C38S]; experiment: Inhibition of DNA binding activity of full-length recombinant NF-kappaB p65 Rel subunit C38S mutant at 10 uM by EMSA
HeLa [4] = experiment: Decrease of TNF-alpha-stimulated NF-kappaB p65 C38S mutant level in human HeLa cell nucleus at 10 ug/mL by Western blot analysis; format: functional, cell-based
[5] = target: Transcription factor p65 (Homo sapiens) (UniProt Q04206); experiment: Inhibition of DNA binding activity of full-length recombinant NF-kappaB p65 Rel subunit at 10 uM by EMSA
[6] = Inhibition of DNA binding activity of NF-kappaB p50 C62S mutant by MALDI-TOF MS analysis
Albumin = Albumin (Bos taurus, UniProt P02769); experiment: Binding affinity to bovine serum albumin; format: ADME; details: cattle, isolated protein
HeLa [7] = experiment: Decrease of TNF-alpha-stimulated endogenous NF-kappaB p65 level in human HeLa cell nucleus at 10 ug/mL by Western blot analysis; format: functional, cell-based
[8] = test system: Transcription factor p65 (Homo sapiens), Q04206 [C38S]; experiment: Inhibition of DNA binding activity of NF-kappaB p65 (1-325) C38S mutant by MALDI-TOF MS analysis
[9] = target: T1, Nuclear factor NF-kappa-B p100 subunit (Homo sapiens) (UniProt Q00653); experiment: Inhibition of DNA binding activity of NF-kappaB p52
T1 sequence (whole entry): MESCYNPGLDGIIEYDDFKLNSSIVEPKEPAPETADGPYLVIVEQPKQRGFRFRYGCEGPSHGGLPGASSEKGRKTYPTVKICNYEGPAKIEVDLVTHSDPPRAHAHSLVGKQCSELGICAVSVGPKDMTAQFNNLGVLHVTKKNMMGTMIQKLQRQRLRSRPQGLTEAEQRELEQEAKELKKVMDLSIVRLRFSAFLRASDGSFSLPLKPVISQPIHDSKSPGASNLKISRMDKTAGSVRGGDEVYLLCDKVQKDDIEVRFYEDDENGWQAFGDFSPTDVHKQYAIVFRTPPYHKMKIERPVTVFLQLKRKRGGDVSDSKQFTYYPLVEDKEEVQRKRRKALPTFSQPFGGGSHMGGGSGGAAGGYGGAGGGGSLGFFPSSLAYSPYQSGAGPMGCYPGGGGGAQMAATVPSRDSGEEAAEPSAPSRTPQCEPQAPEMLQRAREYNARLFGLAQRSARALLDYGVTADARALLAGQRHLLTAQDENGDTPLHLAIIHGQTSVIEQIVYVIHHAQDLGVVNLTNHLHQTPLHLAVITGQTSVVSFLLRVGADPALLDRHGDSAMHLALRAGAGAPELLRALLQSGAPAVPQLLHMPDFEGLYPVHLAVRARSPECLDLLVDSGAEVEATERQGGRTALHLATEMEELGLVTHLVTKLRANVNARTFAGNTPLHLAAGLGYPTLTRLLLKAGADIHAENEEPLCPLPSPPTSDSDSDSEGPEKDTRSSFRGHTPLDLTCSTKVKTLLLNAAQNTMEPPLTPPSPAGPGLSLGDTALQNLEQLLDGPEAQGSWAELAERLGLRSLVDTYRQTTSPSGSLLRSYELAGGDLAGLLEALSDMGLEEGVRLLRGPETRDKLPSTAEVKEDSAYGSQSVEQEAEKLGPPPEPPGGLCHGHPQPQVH

[10] = target: T2, Nuclear factor NF-kappa-B p105 subunit (Homo sapiens) (UniProt P19838); experiment: Inhibition of DNA binding activity of wild type NF-kappaB p50
T2 sequence (whole entry): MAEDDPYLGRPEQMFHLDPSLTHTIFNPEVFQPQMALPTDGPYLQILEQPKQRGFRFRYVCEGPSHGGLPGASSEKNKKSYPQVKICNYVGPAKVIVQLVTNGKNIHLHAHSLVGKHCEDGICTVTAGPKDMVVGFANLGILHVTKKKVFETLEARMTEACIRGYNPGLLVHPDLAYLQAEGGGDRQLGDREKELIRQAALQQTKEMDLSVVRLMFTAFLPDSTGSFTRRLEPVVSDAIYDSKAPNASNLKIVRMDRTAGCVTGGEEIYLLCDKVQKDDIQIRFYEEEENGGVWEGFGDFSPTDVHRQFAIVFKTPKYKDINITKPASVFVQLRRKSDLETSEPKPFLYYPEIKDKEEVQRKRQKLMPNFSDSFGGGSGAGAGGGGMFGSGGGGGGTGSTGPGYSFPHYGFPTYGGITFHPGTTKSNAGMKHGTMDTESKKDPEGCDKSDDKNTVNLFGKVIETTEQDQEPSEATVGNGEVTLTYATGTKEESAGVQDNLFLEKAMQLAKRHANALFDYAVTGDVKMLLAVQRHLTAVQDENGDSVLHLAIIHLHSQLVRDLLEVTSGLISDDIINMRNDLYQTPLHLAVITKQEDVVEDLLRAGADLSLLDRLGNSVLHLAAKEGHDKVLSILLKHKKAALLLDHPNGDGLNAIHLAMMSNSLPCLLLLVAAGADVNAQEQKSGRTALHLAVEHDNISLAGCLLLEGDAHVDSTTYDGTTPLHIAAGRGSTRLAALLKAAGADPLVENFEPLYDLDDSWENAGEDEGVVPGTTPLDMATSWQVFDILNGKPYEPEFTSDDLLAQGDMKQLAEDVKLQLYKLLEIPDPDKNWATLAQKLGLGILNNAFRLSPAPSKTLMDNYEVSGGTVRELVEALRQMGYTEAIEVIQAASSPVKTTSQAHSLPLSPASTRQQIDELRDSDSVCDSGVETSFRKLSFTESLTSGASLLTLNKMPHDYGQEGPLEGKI

[11] = test system: Transcription factor p65 (Homo sapiens), Q04206 [C120S]; experiment: Inhibition of DNA binding activity of NF-kappaB p65 (1-325) C120S mutant by MALDI-TOF MS analysis
[12] = Inhibition of DNA binding activity of NF-kappaB p50 C62S mutant
[13] = target: Transcription factor p65 (Homo sapiens) (UniProt Q04206); experiment: Inhibition of TNF-alpha-stimulated DNA binding activity of wild type NF-kappaB p65 expressed in HeLa cells at 10 ug/mL by EMSA; format: cell-based
[14] = test system: Transcription factor p65 (Homo sapiens), Q04206 [C38S]; experiment: Inhibition of DNA binding activity of NF-kappaB p65 (1-325) C38S mutant by EMSA
[15] = Inhibition of DNA binding activity of wild type NF-kappaB cRel (1-307) by MALDI-TOF MS analysis
[16] = Inhibition of DNA binding activity of wild type NF-kappaB cRel (1-307)
[17] = target: T2, Nuclear factor NF-kappa-B p105 subunit (Homo sapiens); experiment: Inhibition of DNA binding activity of wild type NF-kappaB p50 by MALDI-TOF MS analysis
[18] = test system: Transcription factor p65 (Homo sapiens), Q04206 [C120S]; experiment: Inhibition of DNA binding activity of NF-kappaB p65 (1-325) C120S mutant by EMSA
[19] = test system: Transcription factor p65 (Homo sapiens), Q04206 [C38S]; experiment: Inhibition of TNF-alpha-stimulated DNA binding activity of NF-kappaB p65 C38S mutant expressed in HeLa cells at 10 ug/mL hrs by EMSA; format: cell-based
[20] = test system: T3, Proto-oncogene c-Rel (Homo sapiens), Q04864 [C27S]; experiment: Inhibition of DNA binding activity of NF-kappaB cRel (1-307) C27S mutant by MALDI-TOF MS analysis
T3 sequence (whole entry): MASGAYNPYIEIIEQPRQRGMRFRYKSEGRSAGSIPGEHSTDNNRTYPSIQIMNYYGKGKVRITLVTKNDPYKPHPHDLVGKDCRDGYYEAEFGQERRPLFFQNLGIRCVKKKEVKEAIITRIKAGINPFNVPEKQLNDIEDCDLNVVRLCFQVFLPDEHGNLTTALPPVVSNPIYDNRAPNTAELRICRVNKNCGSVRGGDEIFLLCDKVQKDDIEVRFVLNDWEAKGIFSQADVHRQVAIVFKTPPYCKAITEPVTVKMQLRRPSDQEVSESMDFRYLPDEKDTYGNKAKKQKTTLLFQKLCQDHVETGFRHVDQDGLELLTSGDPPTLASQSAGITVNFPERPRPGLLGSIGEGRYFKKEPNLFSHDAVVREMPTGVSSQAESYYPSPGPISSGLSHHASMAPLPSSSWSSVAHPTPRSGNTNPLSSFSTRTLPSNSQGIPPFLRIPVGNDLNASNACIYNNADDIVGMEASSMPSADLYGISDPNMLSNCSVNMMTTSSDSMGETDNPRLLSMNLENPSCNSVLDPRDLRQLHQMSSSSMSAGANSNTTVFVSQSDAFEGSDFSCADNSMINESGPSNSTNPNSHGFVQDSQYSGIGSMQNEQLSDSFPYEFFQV

[21] = Binding affinity to NF-kappaB p65 (1-325) Rel subunit at 100 uM by surface plasmon resonance analysis
[22] = test system: T3, Proto-oncogene c-Rel (Homo sapiens), Q04864 [C27S]; experiment: Inhibition of DNA binding activity of NF-kappaB cRel (1-307) C27S mutant
[23] = Inhibition of DNA binding activity of NF-kappaB p65 (1-325) Rel subunit at 20 uM by EMSA

Transcription factor p65 (Homo sapiens), Q04206 [C38S], sequence (Q04206 whole entry C38S): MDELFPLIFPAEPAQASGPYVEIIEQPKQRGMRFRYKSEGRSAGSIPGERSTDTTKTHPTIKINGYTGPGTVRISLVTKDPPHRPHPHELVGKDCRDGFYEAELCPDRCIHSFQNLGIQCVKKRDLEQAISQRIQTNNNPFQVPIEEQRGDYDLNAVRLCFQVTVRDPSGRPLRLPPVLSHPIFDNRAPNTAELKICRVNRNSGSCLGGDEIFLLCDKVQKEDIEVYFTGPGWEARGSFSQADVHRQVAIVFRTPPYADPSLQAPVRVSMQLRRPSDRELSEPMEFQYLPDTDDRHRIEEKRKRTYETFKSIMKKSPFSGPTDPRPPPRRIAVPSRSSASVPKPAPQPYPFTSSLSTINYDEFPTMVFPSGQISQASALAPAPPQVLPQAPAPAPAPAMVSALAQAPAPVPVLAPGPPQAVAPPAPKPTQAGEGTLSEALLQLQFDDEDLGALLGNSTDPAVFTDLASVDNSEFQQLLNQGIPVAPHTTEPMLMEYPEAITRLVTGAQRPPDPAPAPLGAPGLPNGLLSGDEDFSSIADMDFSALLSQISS
Transcription factor p65 (Homo sapiens), Q04206 [C120S], sequence (Q04206 whole entry C120S): as the sequence (Q04206 whole entry C38S) above, with S38C, C120S counted along it
Transcription factor p65 (Homo sapiens), sequence (Q04206 whole entry): as the sequence (Q04206 whole entry C38S) above, with S38C counted along it
Albumin, sequence (P02769 whole entry): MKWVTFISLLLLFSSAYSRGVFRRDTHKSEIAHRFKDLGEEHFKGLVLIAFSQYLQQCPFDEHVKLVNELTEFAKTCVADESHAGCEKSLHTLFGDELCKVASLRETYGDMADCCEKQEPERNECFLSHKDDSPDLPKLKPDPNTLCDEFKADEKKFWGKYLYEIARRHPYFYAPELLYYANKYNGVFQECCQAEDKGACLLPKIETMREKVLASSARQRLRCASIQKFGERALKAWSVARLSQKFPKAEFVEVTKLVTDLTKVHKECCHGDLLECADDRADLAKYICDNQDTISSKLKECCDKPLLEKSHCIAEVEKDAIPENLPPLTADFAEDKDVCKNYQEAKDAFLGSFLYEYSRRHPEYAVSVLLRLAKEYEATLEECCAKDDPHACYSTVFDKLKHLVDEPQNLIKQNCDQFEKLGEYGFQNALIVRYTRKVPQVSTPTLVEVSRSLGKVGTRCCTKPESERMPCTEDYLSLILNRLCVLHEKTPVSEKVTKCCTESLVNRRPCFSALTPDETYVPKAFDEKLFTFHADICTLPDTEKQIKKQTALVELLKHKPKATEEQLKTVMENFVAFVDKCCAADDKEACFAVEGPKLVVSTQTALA

O=C(NC1=CC(=O)[C@H]2O[C@H]2[C@H]1O)c1ccccc1O [DEHYDROXYMETHYLEPOXYQUINOMICIN]
Activity (HeLa [1]): Active
Activity [2]: inactive
Activity [3]: inactive
Activity (HeLa [4]): inactive
Activity [5]: inactive
Activity [6]: inactive
Activity (Albumin): Not Active
Activity (HeLa [7]): Active
Activity [8]: inactive
Activity [9]: inactive
Activity [10]: Active
Activity [11]: Active
Activity [12]: inactive
Activity [13]: Active
Activity [14]: inactive
Activity [15]: Active
Activity [16]: Active
Activity [17]: Active
Activity [18]: Active
Activity [19]: inactive
Activity [20]: inactive
Activity [21]: Active
Activity [22]: inactive
Activity [23]: Active

— ChEMBL document CHEMBL1140062, “Inactivation of NF-kappaB components by covalent binding of (-)-dehydroxymethylepoxyquinomicin to specific cysteine residues” (J Med Chem, 2008)
